Test results: US6923992B2, “Active compounds of Bao-Ji-Wan for anti-diarrhea and relieving gastrointestinal symptoms” (The Chinese University of Hong Kong, priority 2001, dated 2005)
≈ marks a conversion by molar mass, not a printed value. Like-named read-outs stand apart in the source and are kept apart here.

How the values were obtained:
[1] = system: Cl−-secreting human colonic cell line, T84; test: Inhibition of cAMP-activated Cl− secretion across T84 cell monolayers; format: cell-based; conditions: forskolin (10 μM), read-out: IC50, inhibition of forskolin-induced Cl− secretion
[2] = system: PGE2-induced fluid accumulation; test: PGE2-induced enteropooling assay (fluid accumulation) in rats; format: in vivo, Sprague-Dawley rats; conditions: for inhibition at 2 mg/kg: Rattus norvegicus, read-out: Inhibition of secretion
Protocol: This example illustrates the ability of BJW and its active components, magnolol, honokiol and imperatorin, to inhibit PGE2-induced fluid accumulation in rats. Sprague-Dawley rats of either sex, in groups of 8 animals, weighing between 220 and 250 g were used. A modified PGE2-induced enteropooling assay (Robert et al., Prostaglandins 11(5):809-28 (1976)) was used. The test drugs or vehicle were administrated intergastrically to rats 60 min before the administration of PGE2 (100 μg/kg, i.g.). BJW was administered (i.g. 1.6 g/kg, 2× of recommended human dosage) once daily for two days before treatment with PGE2.

[3] = rats, dose 2 mg/kg intergastrically 60 min before PGE2 (100 μg/kg, i.g.)

| SMILES | IC50 [1] | inhibition at 2 mg/kg [2, 3] | Fluid accumulation ratio (FA) [2, 3] | inhibition at 2 mg/kg [2] |
| --- | --- | --- | --- | --- |
| CC(C)=CCOc1c2ccoc2cc2oc(=O)ccc12 [isoimperatorin] | 4 to 7 mg/L (≈ 14.8 to 25.9 µM) |  |  |  |
| CC(C)=CCOc1c2occc2cc2ccc(=O)oc12 [Imperatorin, imperatorin] | 4 to 7 mg/L (≈ 14.8 to 25.9 µM) | 39% | 8.87 ± 1.93 fluid g/g intestine |  |
| C=CCc1ccc(O)c(-c2cc(CC=C)ccc2O)c1 [Magnolol, magnolol] |  |  | 3.28 ± 0.32 fluid g/g intestine | 92% |
| CN(C)C(=O)C(CCN1CCC(O)(c2ccc(Cl)cc2)CC1)(c1ccccc1)c1ccccc1 [Loperamide, loperamide, reference compound] |  |  | 5.09 ± 1.40 fluid g/g intestine | 75% |
| C=CCc1ccc(O)c(-c2ccc(O)c(CC=C)c2)c1 [Honokiol, honokiol] | 4 to 7 mg/L (≈ 15 to 26.3 µM) | 56% | 7.06 ± 1.18 fluid g/g intestine |  |
